Results from US9926315B2, “Triazolopyridine compounds and methods for the treatment of cystic fibrosis” (Flatley Discovery Lab, LLC, priority 2014, dated 2018).

Biological target: T1, human ΔF508-CFTR (Homo sapiens, UniProt P13569, DEL508-508)
T1 construct: expressed in transfected cells
Experiment: CFTR-YFP High Throughput Assay (HTS YFP flux assay, corrector / potentiator protocols)
Type: cell-based
Conditions: FRT cells stably expressing human ΔF508-CFTR and YFP-H148Q/I152L; for Emax: normalized to positive control, read-out: Emax (% Efficacy, EMax normalized to the positive control)
Procedure: Assays for Detecting and Measuring the Effect of Compounds on dF508-CFTR Channels CFRT-YFP High Throughput Assay: Corrector Assay:
The following protocol is designed to selectively screen small molecule compounds for F508del CFTR corrector activities in the HTS YFP flux assay. In this protocol, the cells are incubated with testing compounds for 24 hours, washed with PBS, stimulated with forskolin and a standard potentiator, and read on a 384-well HTS plate reader, such as the Hamamatsu FDDD-6000.
(§1) YFP fluorescence intensity is acquired at high speed before and after iodide buffer is injected to the assay cells. Iodide enters the cells via active CFTR channels in the plasma membrane, and quenches the YFP fluorescence. The rate of fluorescence quenching is proportionally related to the total CFTR activities in the cell membrane. dF508-CFTR corrector accelerates YFP quenching by increasing the number of CFTR molecules in the testing cell plasma membrane.
This method was initially developed for bench top plate readers (Galietta, 2001), and was adapted to the HTS format (Sui, 2010).
Fisher Rat Thyroid (FRT) cells stably expressing both human ΔF508-CFTR and a halide-sensitive yellow fluorescent protein (YFP-H148Q/I152L 25, 22) (Galietta, 2001) were cultured on plastic surface in Coon's modified Ham's F12 medium supplemented with FBS 10%, L-glutamine 2 mM, penicillin 100 U/mL, and streptomycin 100 μg/mL. G418 (0.75-1.0 mg/mL) and zeocin (3.2 μg/mL) were used for selection of FRT cells expressing ΔF508-CFTR and YFP. For primary screening, FRT cells were plated into 384-well black wall, transparent bottom microtiter plates (Costar; Corning Inc.) at a cell density of 20, 000-40, 000 per well. Test compound was applied to the cells at varying concentrations ranging from 2 nM-[…] in either a 2-fold or 3-fold dilution series. Cells were incubated in a cell culture incubator at 37° C. with 5% CO2 for 24-26 h. Assay plates were washed with DPBS media (Thermo, cat#SH30028.02) to remove unbound cells and compound. Stimulation media (25 μL) containing 20 μM Forskolin & 30 μM P3 [6-(Ethyl-phenyl-sulfonyl)-4-oxo-1, 4-dihydro-quinoline-3-carboxylic acid 2-methoxy-benzylamide] in Hams F-12 coon's modified media was added to the plate wells and incubated at room temperature for 60-120 min. 25 μL of HEPES-PBS-I buffer (10 mM HEPES, 1 mM MgCl2, 3 mM KCl, 1 mM CaCl2, 150 mM NaI) was then added and fluorescence quench curves (Excitation 500 nm/Emission 540 nm; exposure 136 ms) were immediately recorded on an FDSS-6000 plate reader (Hamamatsu). Quench rates were derived from least squares fitting of the data (Sui, 2010).
The following protocol is designed to selectively screen small molecule compounds for F508del CFTR potentiator activities in the HTS YFP flux assay. In this protocol, the cells are incubated at 27° C. for 24 hours with homogeneously boosted dF508-CFTR expression in the cell membrane by the low temperature, washed with PBS, stimulated with forskolin, and read on a 384-well HTS plate reader, such as the Hamamatsu […].
as §1, with “dF508del-CFTR potentiators accelerate” for “dF508-CFTR corrector accelerates”, “increasing” for “increasing the number of”, “activities” for “molecules”
Fisher Rat Thyroid (FRT) cells stably expressing both human ΔF508-CFTR and a halide-sensitive yellow fluorescent protein (YFP-H148Q/I152L 25, 22) (Galietta, 2001) were cultured on plastic surface in Coon's modified Ham's F12 medium supplemented with FBS 10%, L-glutamine 2 mM, penicillin 100 U/mL, and streptomycin 100 μg/mL. G418 (0.75-1.0 mg/mL) and zeocin (3.2 μg/mL) were used for selection of FRT cells expressing ΔF508-CFTR and YFP. […]

T1 sequence (P13569 with tags, fused parts or gaps DEL508-508): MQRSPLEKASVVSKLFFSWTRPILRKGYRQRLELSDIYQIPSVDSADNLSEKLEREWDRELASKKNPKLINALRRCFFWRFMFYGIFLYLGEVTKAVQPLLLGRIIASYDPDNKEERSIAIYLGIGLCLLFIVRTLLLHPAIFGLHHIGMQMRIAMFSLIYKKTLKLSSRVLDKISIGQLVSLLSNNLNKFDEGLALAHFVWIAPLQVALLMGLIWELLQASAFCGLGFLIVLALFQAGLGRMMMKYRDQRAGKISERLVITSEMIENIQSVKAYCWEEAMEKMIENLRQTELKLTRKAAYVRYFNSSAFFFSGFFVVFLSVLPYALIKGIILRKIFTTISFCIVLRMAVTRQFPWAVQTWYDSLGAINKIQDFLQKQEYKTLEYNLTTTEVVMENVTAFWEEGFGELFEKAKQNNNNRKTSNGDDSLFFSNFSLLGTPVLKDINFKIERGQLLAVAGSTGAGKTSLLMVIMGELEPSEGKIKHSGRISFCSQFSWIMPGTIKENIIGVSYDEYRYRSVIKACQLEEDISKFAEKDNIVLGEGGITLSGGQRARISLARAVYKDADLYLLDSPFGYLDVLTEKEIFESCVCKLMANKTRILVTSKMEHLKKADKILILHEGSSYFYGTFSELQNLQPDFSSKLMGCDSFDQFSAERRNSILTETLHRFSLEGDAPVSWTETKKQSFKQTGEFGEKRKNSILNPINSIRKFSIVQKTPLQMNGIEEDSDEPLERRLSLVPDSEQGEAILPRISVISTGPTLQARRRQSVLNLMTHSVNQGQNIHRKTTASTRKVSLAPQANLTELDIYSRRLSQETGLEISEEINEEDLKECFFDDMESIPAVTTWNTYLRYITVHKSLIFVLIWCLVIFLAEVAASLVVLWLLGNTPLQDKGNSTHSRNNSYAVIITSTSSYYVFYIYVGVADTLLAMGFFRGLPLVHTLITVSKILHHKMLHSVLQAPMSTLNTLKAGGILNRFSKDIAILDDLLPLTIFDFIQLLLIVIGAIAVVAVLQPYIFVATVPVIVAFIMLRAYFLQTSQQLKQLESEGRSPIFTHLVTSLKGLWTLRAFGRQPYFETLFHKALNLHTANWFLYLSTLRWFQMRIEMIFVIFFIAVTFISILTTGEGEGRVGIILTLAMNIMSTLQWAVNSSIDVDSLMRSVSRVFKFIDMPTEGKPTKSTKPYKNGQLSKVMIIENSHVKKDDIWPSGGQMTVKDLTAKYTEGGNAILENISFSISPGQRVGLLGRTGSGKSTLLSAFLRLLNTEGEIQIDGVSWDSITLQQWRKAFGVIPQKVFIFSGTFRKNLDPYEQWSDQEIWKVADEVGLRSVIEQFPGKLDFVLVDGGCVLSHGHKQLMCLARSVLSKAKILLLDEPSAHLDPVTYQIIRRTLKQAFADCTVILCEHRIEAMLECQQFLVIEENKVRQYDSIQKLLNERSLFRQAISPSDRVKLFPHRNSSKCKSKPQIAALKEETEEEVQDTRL

Row | Structure (SMILES) | EC50 [nM] | Emax [%]
1 | CCN(CC)S(=O)(=O)c1ccc2nnc(N[C@@H](Cc3ccccc3)C(=O)N3CCCCC3)n2c1 [Example 53] | < 1000 | > 80
2 | CCN(CC)S(=O)(=O)c1ccc2nnc(NCc3ccccc3F)n2c1 [Example 54] | 1000 to 10000 | > 80
3 | CCN(CC)S(=O)(=O)c1ccc2nnc(NCc3ccc(OC(F)(F)F)cc3)n2c1 [Example 55] | < 1000 | 10 to 40
4 | CCN(CC)S(=O)(=O)c1ccc2nnc(NCc3cccc(C#N)c3)n2c1 [Example 56] | < 1000 | > 80
5 | CCN(CC)S(=O)(=O)c1ccc2nnc(N[C@@H](C)C(=O)N3CCCCC3)n2c1 [Example 57] | 1000 to 10000 | 40 to 80
6 | CCN(c1cccnc1)S(=O)(=O)c1ccc2nnc(N[C@H](C)c3ccccc3)n2c1 [Example 58, (R)—N-Ethyl-3-((1-phenylethyl)amino)-N-(pyridin-3-yl)-[1,2,4]triazolo[4,3-a]pyridine-6-sulfonamide] | < 1000 | 40 to 80
7 | COc1ccc(S(=O)(=O)Nc2ccc3nnc(NCc4ccccc4)n3c2)cc1 [Example 59, N-(3-(Benzylamino)-[1,2,4]triazolo[4,3-a]pyridine-6-yl)-4-methoxybenzenesulfonamide] | < 1000 | 40 to 80
8 | CCN(CC)S(=O)(=O)c1ccn2c(NCC(C)(C)C)nnc2c1 [Example 60, N,N-Diethyl-3-(neopentylamino)-[1,2,4]triazolo[4,3-a]pyridine-7-sulfonamide] | < 1000 | > 80
9 | CCN(CC)S(=O)(=O)c1ccc2nnc(NCc3ccccc3)n2c1C [Example 61, 3-(Benzylamino)-N,N-diethyl-5-methyl-[1,2,4]triazolo[4,3-a]pyridine-6-sulfonamide] | 1000 to 10000 | 10 to 40
10 | C[C@@H](Nc1nnc2ccc(S(=O)(=O)c3ccccc3)cn12)c1ccccc1 [Example 62, (R)—N-(1-Phenylethyl)-6-(phenylsulfonyl)-[1,2,4]triazolo[4,3-a]pyridin-3-amine] | < 1000 | > 80
11 | O=S(=O)(c1ccccc1)c1ccc2nnc(NCc3ccc(C(F)(F)F)cc3)n2c1 [Example 63] | < 1000 | 40 to 80
12 | O=S(=O)(c1ccccc1)c1ccc2nnc(NC3Cc4ccccc4C3)n2c1 [Example 64] | < 1000 | > 80
13 | O=S(=O)(c1ccccc1)c1ccc2nnc(NCc3ccc(-c4ccccn4)cc3)n2c1 [Example 65] | < 1000 | > 80
14 | O=S(=O)(c1ccccc1)c1ccc2nnc(NCC(O)C3CCCCC3)n2c1 (centres unmarked) [Example 66] | < 1000 | > 80
15 | O=S(=O)(c1ccccc1)c1ccc2nnc(NCC(O)COc3ccccc3)n2c1 (centres unmarked) [Example 67] | < 1000 | > 80
16 | COC[C@@H](Nc1nnc2ccc(S(=O)(=O)c3ccccc3)cn12)c1ccccc1 [Example 68] | < 1000 | > 80
17 | O=S(=O)(c1ccccc1)c1ccc2nnc(NC[C@H](O)C3CCCCC3)n2c1 [Example 69] | < 1000 | > 80
18 | O=S(=O)(c1ccccc1)c1ccc2nnc(NC[C@H](O)c3ccccc3)n2c1 [Example 70] | < 1000 | > 80
19 | COc1cccc(S(=O)(=O)c2ccc3nnc(N[C@H](C)c4ccccc4)n3c2)c1 [Example 71] | 1000 to 10000 | > 80
20 | C[C@@H](Nc1nnc2ccc(S(=O)(=O)c3ccc(Cl)cc3)cn12)c1ccccc1 [Example 72] | 1000 to 10000 | > 80
21 | O=S(=O)(c1ccccc1)c1ccc2nnc(NCC(O)C3CCCC3)n2c1 (centres unmarked) [Example 73] | < 1000 | > 80
22 | CC(C)(C)C(=O)OC(CNc1nnc2ccc(S(=O)(=O)c3ccccc3)cn12)C1CCCCC1 (centres unmarked) [Example 74] | < 1000 | > 80

Row | Structure (SMILES) | EC50 [nM] | Emax [%]
23 | O=S(=O)(c1ccccc1)c1ccc2nnc(NCC(O)c3ccc(F)cc3)n2c1 (centres unmarked) [Example 75] | < 1000 | > 80
24 | O=S(=O)(c1ccccc1)c1ccc2nnc(NCCC3CCCCC3)n2c1 [Example 76] | 1000 to 10000 | > 80
25 | CCOC(=O)OC(CNc1nnc2ccc(S(=O)(=O)c3ccccc3)cn12)C1CCCCC1 (centres unmarked) [Example 77] | < 1000 | > 80
26 | O=S(=O)(c1ccccc1)c1ccc2nnc(NCC(O)C3CCCCCC3)n2c1 (centres unmarked) [Example 78] | < 1000 | > 80
27 | O=C(CNc1nnc2ccc(S(=O)(=O)c3ccccc3)cn12)C1CCCCC1 [Example 79] | 1000 to 10000 | > 80
28 | O=S(=O)(c1ccccc1)c1ccc2nc(NC3Cc4ccccc4C3)nn2c1 [Example 80, N-(2,3-dihydro-1H-inden-2-yl)-6-(phenylsulfonyl)-[1,2,4]triazolo[1,5-a]pyridin-2-amine] | < 1000 | > 80
29 | C[C@@H](Nc1nc2ccc(S(=O)(=O)c3ccccc3)cn2n1)c1ccccc1 [Example 81] | < 1000 | > 80
30 | O=S(=O)(c1ccccc1)c1ccc2nc(NCc3cccc(C(F)(F)F)c3)nn2c1 [Example 82] | < 1000 | > 80
31 | O=S(=O)(c1ccccc1)c1ccc2nc(NC[C@H](O)c3ccccc3)nn2c1 [Example 83] | < 1000 | > 80
32 | O=S(=O)(c1ccccc1)c1ccc2nc(NCC(O)C3CCCCC3)nn2c1 (centres unmarked) [Example 84] | 1000 to 10000 | > 80
33 | O=S(=O)(c1ccccc1)c1ccc2nc(NC[C@@H](O)c3ccccc3)nn2c1 [Example 85] | < 1000 | > 80
34 | O=S(=O)(c1ccccc1)c1ccc2nc(NCC3CC3)nn2c1 [Example 86] | < 1000 | > 80
35 | O=C(CNc1nc2ccc(S(=O)(=O)c3ccccc3)cn2n1)C1CCCCC1 [Example 87] | < 1000 | > 80
36 | O=S(=O)(c1ccccc1)c1ccc2nc(NCCC3CCCCC3)nn2c1 [Example 88] | < 1000 | > 80
37 | Cc1ccc([C@@H](C)Nc2nc3ccc(S(=O)(=O)c4ccccc4)cn3n2)cc1 [Example 90] | 1000 to 10000 | 40 to 80
38 | O=C(c1ccc(CNc2nc3ccc(S(=O)(=O)c4ccccc4)cn3n2)cc1)N1CCC1 [Example 91] | < 1000 | 40 to 80
39 | O=S(=O)(c1ccccc1)c1ccc2nc(NCc3ccc(C4CCOCC4)cc3)nn2c1 [Example 92] | 1000 to 10000 | 40 to 80
40 | CN1CCC(c2ccc(CNc3nc4ccc(S(=O)(=O)c5ccccc5)cn4n3)cc2)CC1 [Example 93] | < 1000 | > 80
41 | O=S(=O)(c1ccccc1)c1ccc2nc(NCc3ccc(-c4ccccn4)cc3)nn2c1 [Example 94, 6-(phenylsulfonyl)-N-(4-(pyridin-2-yl)benzyl)-[1,2,4]triazolo[1,5-a]pyridin-2-amine] | < 1000 | > 80
42 | c1ccc(-c2ccc3nc(Nc4ccc(-c5ccccn5)cc4)nn3c2)cc1 [Example 100, 6-phenyl-N-(4-(pyridin-2-yl)phenyl)-[1,2,4]triazolo[1,5-a]pyridin-2-amine] | 1000 to 10000 | 40 to 80
43 | O=S(=O)(c1ccc2nc(NCc3ccc4c(c3)OCO4)nn2c1)N1CCCCC1 [Example 101, N-(benzo[d][1,3]dioxol-5-ylmethyl)-6-(piperidin-1-ylsulfonyl)-[1,2,4]-triazolo[1,5-a]pyridin-2-amine] | 1000 to 10000 | > 80
